Tests used:
Type in all cases: cell-based
[1] = target: T1, Ba/F3 KIF5B-RET^V804M cells (Homo sapiens, UniProt P07949, V804M, cells depend on it); experiment: Cytotoxicity assay (CellTiter-Glo), Ba/F3 KIF5B-RET V804M; conditions: CellTiter-Glo, 72 hrs; read-out: Ba/F3 KIF5B-RET^V804M IC50
T1 construct: Ba/F3 KIF5B-RET^V804M IC50 (nM); other: CellTiter-Glo, 72 hrs; fused on or other part: P33176 (Kinesin-1 heavy chain)
Procedure: (§1) Inhibitory effects of example compounds on the activity of Ba/F3 parental generation, Ba/F3 KIF5B-RET, Ba/F3 KIF5B-RET^V804M, Ba/F3 KIF5B-RET^V804L, Ba/F3 KIF5B-RET^G810R, Ba/F3 FLT3-ITD, Ba/F3 FLT3-ITD^D835Y, Ba/F3 FLT3-ITD^F691L cells were determined.
(§2) Materials and reagents: fetal bovine serum FBS (GIBCO, Cat #10099141), CellTiter-Glo® Luminescent Cell Viability Assay kit (Promega, Cat #G7572), 96-well black-wall clear flat-bottom plate (Corning®, Cat #3603).
(§3) 1. Cells in the logarithmic growth phase were harvested and counted with a […]. Cell viability was detected by a trypan blue exclusion method, ensuring that cell viability was 90% or more; 2. Cell concentration was adjusted to about 3000 cells/well; 90 μl of cell suspension was added to each well of the 96-well plate; 3. The cells in the 96-well plate were incubated overnight under the condition of 37° C., 5% CO2, and 95% humidity.
(§4) 1. A series of compound solutions were formulated by 3.16-fold serial dilution starting from a concentration of 10 μM, resulting in 9 concentrations. 10 μL of the compound solutions were added in each well of the 96-well plate seeded with cells in triplicate for each compound concentration; 2. The cells in the 96-well plate added with compounds were further incubated under the condition of 37° C., 5% CO2, and 95% humidity for 72 hrs, and then CTG analysis was carried out.
(§5) 1. CTG reagent was thawed, and the cell plate was equilibrated at room temperature for 30 minutes; 2. An equal volume […] of CTG solution was added to each well; 3. The cell plate was shaken on an orbital shaker for 5 minutes to lyse the cells; 4. The cell plate was placed at RT for 20 minutes to stabilize the luminescence signal; 5. Luminescence value was read.
(§6) Data were Analyzed by GraphPad Prism 5.0 Software, and Fitted by Nonlinear S-Curve Regression to obtain a dose-response curve, from which IC50 values were calculated.
(§7) Cell survival rate (%)=(luminescence value of drug to be tested−luminescence value of culture medium control)/(luminescence value of cell control−luminescence value of culture medium control)×100%.

[2] = test system: Ba/F3 KIF5B-RET^V804M cells; experiment: as above; conditions: ratio of Ba/F3 parental IC50 to Ba/F3 KIF5B-RET^V804M IC50
Procedure: as §1, §2, §3, §4, §5, §6, §7

[3] = target: T2, Ba/F3 KIF5B-RET^G810R cells (Homo sapiens, UniProt P07949, G810R, cells depend on it); experiment: Cytotoxicity assay (CellTiter-Glo), Ba/F3 KIF5B-RET G810R; conditions: CellTiter-Glo, 72 hrs; read-out: Ba/F3 KIF5B-RET^G810R IC50
T2 construct: Ba/F3 KIF5B-RET^G810R IC50 (nM); other: CellTiter-Glo, 72 hrs; fused on or other part: P33176 (Kinesin-1 heavy chain)
Procedure: as §1, §2, §3, §4, §5, §6, §7

[4] = test system: Ba/F3 KIF5B-RET^G810R cells; experiment: as above; conditions: ratio of Ba/F3 parental IC50 to Ba/F3 KIF5B-RET^G810R IC50
Procedure: as §1, §2, §3, §4, §5, §6, §7

[5] = target: T3, Ba/F3 FLT3-ITD^D835Y cells (Homo sapiens, UniProt P36888, D835Y, cells depend on it, form not given); experiment: Cytotoxicity assay (CellTiter-Glo), Ba/F3 FLT3-ITD D835Y; conditions: CellTiter-Glo, 72 hrs; read-out: Ba/F3 FLT3-ITD^D835Y IC50
T3 construct: Ba/F3 FLT3-ITD^D835Y IC50 (nM); other: CellTiter-Glo, 72 hrs
T3 sequence (P36888 1-993 D835Y): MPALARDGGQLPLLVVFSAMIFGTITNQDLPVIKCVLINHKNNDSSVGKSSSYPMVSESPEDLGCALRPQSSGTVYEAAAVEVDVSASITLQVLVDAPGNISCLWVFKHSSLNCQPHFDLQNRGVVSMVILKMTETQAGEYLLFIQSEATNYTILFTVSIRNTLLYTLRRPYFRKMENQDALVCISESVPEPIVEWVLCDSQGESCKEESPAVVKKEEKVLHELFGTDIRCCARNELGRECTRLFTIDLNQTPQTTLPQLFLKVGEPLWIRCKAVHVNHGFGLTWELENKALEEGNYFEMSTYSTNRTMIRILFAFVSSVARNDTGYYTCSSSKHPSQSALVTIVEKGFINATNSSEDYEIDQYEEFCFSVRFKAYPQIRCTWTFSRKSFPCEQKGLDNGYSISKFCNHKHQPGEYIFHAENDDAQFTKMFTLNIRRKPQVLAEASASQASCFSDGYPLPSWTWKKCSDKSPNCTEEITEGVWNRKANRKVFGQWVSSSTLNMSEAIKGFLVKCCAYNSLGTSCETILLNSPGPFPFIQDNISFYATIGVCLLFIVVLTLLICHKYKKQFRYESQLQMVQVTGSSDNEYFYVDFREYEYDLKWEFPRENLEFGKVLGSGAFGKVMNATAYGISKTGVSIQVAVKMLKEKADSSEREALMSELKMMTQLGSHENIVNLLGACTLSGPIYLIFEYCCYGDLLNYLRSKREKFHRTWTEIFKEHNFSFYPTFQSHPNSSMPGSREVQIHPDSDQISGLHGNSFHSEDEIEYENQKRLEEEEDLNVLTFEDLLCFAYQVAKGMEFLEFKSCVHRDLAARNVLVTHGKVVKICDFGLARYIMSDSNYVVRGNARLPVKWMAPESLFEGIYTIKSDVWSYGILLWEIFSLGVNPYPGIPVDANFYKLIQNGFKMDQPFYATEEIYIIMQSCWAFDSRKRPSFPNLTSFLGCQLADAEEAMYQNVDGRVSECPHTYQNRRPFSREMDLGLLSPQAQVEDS
How it was run: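 Growth inhibition in engineered Ba/F3 cells measured after 72 hrs compound exposure by CTG luminescence; IC50 from fitted dose-response curves.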

[6] = test system: Ba/F3 FLT3-ITD^F691L cells; experiment: Cytotoxicity assay (CellTiter-Glo), Ba/F3 FLT3-ITD F691L; conditions: ratio of Ba/F3 parental IC50 to Ba/F3 FLT3-ITD^F691L IC50
Procedure: as §1, §2, §3, §4, §5, §6, §7

T1 sequence (P07949 whole entry V804M, the tested form may be a part): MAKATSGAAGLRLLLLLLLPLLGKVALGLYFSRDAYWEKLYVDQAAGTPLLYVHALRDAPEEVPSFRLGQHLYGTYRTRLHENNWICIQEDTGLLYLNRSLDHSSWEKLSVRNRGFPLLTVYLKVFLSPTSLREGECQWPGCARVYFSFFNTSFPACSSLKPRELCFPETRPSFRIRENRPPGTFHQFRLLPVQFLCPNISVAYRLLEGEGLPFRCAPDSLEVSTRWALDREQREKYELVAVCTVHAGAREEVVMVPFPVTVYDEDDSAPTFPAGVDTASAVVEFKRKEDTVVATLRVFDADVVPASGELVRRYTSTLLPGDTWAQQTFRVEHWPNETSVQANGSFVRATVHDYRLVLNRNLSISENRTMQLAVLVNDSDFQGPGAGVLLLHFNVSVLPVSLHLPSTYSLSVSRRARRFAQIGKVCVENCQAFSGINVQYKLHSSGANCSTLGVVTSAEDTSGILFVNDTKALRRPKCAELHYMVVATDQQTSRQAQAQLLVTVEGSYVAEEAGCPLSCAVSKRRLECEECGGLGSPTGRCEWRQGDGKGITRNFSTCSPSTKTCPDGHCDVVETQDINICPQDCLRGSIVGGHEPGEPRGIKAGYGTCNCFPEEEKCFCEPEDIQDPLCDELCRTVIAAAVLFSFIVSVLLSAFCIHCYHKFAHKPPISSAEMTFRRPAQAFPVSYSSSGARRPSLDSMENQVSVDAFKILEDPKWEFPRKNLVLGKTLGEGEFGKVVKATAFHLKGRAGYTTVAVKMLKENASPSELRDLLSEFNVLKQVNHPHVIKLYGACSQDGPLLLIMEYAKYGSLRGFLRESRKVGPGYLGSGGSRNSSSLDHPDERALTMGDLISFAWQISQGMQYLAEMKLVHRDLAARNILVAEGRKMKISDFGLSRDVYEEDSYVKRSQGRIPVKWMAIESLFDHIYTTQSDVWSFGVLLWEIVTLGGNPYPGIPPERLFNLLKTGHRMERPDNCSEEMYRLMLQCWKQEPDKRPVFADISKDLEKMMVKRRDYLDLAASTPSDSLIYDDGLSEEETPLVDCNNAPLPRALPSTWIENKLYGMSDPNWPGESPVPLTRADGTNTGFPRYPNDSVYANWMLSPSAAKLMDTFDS
T2 sequence (P07949 whole entry G810R, the tested form may be a part): as the sequence (P07949 whole entry V804M, the tested form may be a part) above, with M804V, G810R counted along it

Structure (SMILES)	GI50 [1]	Ba/F3 KIF5B-RET^V804M Selectivity on parental generation [2]	GI50 [3]	Ba/F3 KIF5B-RET^G810R Selectivity on parental generation [4]	GI50 [5]	Ba/F3 FLT3-ITD^F691L Selectivity on parental generation [6]
[2H]C([2H])([2H])C(n1nc(-c2ccc(CC(=O)Nc3cc(C(C)(C)C(F)(F)F)no3)cc2)c2c(N)ncnc21)C([2H])([2H])[2H] [Compound T-11, 2-(4-(4-amino-1-(propan-2-yl-1,1,1,3,3,3-d6)-1H-pyrazolo[3,4-d]pyrimidin-3-yl)phenyl)-N-(3-(1,1,1-trifluoro-2-methylpropan-2-yl)isoxazol-5-yl)acetamide]	3.63 nM	1517.1	5.86 nM	939.8	17.9 nM	404.9
[2H]C([2H])([2H])C(n1cc(-c2ccc(CC(=O)Nc3cc(C(C)(C)C(F)(F)F)on3)cc2)c2c(N)ncnc21)C([2H])([2H])[2H] [Compound T-12, 2-(4-(4-amino-7-(propen-2-yl-1,1,1,3,3,d6)-7H-pyrrolo[2,3-d]pyrimidin-5-yl)phenyl)-N-(5-(1,1,1-trifluo-2-methylpropan-2-yl)isoxazol-3-yl)acetamide]	4.55 nM	235.6	6.4 nM	167.5	12.3 nM	289.7

Source: patent publication US20220380375A1, “SUBSTITUTED AROMATIC FUSED RING DERIVATIVE AND COMPOSITION COMPRISING SAME, AND USE THEREOF” (Shenzhen TargetRx, Inc., priority 2019, published 2022)
